Source: ChEMBL document CHEMBL1131247, “Substituted naphthofurans as hallucinogenic phenethylamine-ergoline hybrid molecules with unexpected muscarinic antagonist activity” (J Med Chem, 1998)
“And” between values parts separate entries of the source, which are not always exact repeats. Equal entries are not always repeated. The source made the active and inactive calls. The calls are words filed in the database; no cut-off is given here.

Experiments:
[1] = biological target: T1, 5-hydroxytryptamine receptor 1A (Rattus norvegicus, UniProt P19327); test: Affinity at [3H]8-OH-DPAT-labeled 5-hydroxytryptamine 1A receptor in rat brain homogenate was determined; assay type: tissue-based
T1 sequence (P19327 whole entry): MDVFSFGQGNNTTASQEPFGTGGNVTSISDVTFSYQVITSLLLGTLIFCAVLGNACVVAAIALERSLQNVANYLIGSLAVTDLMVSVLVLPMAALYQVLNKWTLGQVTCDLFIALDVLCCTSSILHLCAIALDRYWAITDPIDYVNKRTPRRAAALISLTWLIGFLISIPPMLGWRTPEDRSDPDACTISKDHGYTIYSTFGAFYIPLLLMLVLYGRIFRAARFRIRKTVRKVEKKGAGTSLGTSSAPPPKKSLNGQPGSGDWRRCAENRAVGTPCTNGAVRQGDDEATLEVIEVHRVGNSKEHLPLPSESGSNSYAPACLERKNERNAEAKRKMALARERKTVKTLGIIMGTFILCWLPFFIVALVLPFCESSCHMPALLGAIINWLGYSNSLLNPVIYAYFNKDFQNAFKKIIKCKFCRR

[2] = biological target: 5-hydroxytryptamine receptor 2A (Rattus norvegicus, UniProt P14842); test: Affinity at [3H]ketanserin-labeled 5-hydroxytryptamine 2A receptor in rat brain homogenate was determined; assay type: tissue-based
[3] = biological target: T2, Muscarinic acetylcholine receptor M2 (Rattus norvegicus) (UniProt P10980)
T2 sequence (whole entry): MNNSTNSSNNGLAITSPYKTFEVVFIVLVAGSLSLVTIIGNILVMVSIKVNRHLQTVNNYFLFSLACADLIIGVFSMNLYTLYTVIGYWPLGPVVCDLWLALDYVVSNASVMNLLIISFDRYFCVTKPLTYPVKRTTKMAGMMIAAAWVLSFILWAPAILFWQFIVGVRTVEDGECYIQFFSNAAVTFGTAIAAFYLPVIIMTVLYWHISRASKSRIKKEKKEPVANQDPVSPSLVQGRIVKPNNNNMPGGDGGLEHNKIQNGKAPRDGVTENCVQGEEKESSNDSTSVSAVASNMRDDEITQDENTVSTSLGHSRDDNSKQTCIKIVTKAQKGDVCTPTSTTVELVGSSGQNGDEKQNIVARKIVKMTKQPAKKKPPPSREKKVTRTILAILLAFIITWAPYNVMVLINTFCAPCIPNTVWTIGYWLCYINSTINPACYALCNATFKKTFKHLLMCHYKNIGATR

[4] = biological target: T3, Muscarinic acetylcholine receptor M4 (Rattus norvegicus) (UniProt P08485)
T3 sequence (whole entry): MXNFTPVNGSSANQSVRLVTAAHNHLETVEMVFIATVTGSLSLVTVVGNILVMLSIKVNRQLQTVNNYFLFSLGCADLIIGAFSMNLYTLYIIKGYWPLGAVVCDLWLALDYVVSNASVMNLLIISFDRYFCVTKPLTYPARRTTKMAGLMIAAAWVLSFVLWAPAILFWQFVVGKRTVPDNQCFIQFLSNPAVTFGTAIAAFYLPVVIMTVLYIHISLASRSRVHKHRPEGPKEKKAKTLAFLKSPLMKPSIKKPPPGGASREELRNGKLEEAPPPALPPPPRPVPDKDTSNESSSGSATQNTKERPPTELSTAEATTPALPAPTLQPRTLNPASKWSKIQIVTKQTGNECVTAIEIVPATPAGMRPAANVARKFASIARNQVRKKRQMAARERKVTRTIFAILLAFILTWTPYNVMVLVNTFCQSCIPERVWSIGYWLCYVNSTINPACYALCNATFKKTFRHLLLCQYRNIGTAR

[5] = biological target: T4, Muscarinic acetylcholine receptor M5 (Rattus norvegicus) (UniProt P08911)
T4 sequence (whole entry): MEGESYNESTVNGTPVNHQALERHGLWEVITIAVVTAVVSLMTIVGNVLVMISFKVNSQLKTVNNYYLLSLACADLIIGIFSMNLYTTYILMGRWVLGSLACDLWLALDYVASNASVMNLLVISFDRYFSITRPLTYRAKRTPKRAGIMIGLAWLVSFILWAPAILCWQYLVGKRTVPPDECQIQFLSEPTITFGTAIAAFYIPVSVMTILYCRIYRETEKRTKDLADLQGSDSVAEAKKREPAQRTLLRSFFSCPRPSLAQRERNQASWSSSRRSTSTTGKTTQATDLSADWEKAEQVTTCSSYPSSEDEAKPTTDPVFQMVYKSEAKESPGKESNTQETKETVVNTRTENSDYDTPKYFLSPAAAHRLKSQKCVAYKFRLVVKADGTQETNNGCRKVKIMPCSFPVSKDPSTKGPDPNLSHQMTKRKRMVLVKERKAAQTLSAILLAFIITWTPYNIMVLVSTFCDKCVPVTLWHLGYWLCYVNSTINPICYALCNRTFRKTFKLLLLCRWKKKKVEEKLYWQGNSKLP

[6] = biological target: T5, Muscarinic acetylcholine receptor M1 (Mus musculus) (UniProt P12657)
T5 sequence (whole entry): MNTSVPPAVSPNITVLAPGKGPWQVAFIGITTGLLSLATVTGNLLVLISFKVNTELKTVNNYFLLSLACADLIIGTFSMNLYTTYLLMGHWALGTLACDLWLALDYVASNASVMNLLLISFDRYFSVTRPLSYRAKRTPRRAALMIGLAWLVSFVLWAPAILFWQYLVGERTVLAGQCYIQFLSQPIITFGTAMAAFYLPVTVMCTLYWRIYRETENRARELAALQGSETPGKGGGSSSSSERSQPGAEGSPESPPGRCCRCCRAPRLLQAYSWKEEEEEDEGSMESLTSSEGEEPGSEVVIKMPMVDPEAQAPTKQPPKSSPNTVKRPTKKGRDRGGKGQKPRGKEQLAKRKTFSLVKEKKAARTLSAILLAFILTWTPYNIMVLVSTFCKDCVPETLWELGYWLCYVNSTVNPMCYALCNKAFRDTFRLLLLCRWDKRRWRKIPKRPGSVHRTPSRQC

[7] = biological target: Muscarinic acetylcholine receptor M3 (Rattus norvegicus) (UniProt P08483)
[8] = biological target: T6, 5-hydroxytryptamine receptor 2A (Homo sapiens, UniProt P28223); test: Binding ability of compound at cloned human 5-hydroxytryptamine 2A receptor using [125 I]DOI as radioligand
[9] = biological target: T7, 5-hydroxytryptamine receptor 2B (Homo sapiens, UniProt P41595); test: Binding ability of compound at cloned human 5-hydroxytryptamine 2B receptor using [3H]- rauwolscine as radioligand
[10] = biological target: T7, 5-hydroxytryptamine receptor 2B; test: Binding ability of compound at cloned human 5-hydroxytryptamine 2B receptor using [3H]5-HT 2B as radioligand
[11] = biological target: T8, 5-hydroxytryptamine receptor 2C (Homo sapiens, UniProt P28335); test: Binding ability of compound at cloned human 5-hydroxytryptamine 2C receptor using [125 I]DOI as radioligand
T8 sequence (P28335 whole entry): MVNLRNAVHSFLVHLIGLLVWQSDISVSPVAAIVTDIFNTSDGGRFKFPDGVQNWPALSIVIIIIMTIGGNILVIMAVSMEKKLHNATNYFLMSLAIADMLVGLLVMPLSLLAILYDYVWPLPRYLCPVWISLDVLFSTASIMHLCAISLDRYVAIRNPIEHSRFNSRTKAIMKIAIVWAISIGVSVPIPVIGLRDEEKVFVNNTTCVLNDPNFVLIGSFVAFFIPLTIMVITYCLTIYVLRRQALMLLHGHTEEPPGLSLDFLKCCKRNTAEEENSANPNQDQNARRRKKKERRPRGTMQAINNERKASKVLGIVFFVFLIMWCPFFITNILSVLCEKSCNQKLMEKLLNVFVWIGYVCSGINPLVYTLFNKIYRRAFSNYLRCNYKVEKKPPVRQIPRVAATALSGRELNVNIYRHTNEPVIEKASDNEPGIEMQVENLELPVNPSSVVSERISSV

[12] = biological target: T8, 5-hydroxytryptamine receptor 2C; test: Binding ability of compound at cloned human 5-hydroxytryptamine 2C receptor using [3H]- mesulergine as radioligand
[13] = test system: Rattus norvegicus; test: Percentage of animals failing to emit 50 presses on either lever within the 15-min test period in rat at 2.92 mg/kg (8 umol/kg); assay type: functional
[14] = test system: Rattus norvegicus; test: Percentage of animals failing to emit 50 presses on either lever within the 15-min test period in rat at 5.84 mg/kg (16 umol/kg); assay type: functional
[15] = test system: Rattus norvegicus; test: Percentage of animals failing to emit 50 presses on either lever within the 15-min test period in rat at 0.365 mg/kg (1 uM/kg); assay type: functional
[16] = test system: Rattus norvegicus; test: Percentage of animals failing to emit 50 presses on either lever within the 15-min test period in rat at 0.78 mg/kg(2 uM/kg); assay type: functional
[17] = test system: Rattus norvegicus; test: Percentage of animals failing to emit 50 presses on either lever within the 15-min test period in rat at 1.46 mg/kg (4 umol/kg); assay type: functional
[18] = species on record: Rattus norvegicus; test: (§1) Effective dose for LSD-like behavioral effect in rats; Not significant; assay type: functional, organism-based
[19] = species on record: Rattus norvegicus; test: as §1; assay type: functional, organism-based; remark: listed apart in the source
[20] = test system: Rattus norvegicus; test: Percentage of animal emitting 50 presses on the LSD appropriate lever during the test period in rat at 0.365 mg/kg (1 uM/kg); assay type: functional
[21] = species on record: Rattus norvegicus; test: Percentage of animals emitting 50 presses on the LSD appropriate lever during the test period; assay type: functional
[22] = test system: Rattus norvegicus; test: Percentage of animals emitting 50 presses on the LSD appropriate lever during the test period in rat at 0.78 mg/kg(2 uM/kg); assay type: functional
[23] = test system: Rattus norvegicus; test: Percentage of animals emitting 50 presses on the LSD appropriate lever during the test period in rat at 1.46 mg/kg (4 umol/kg); assay type: functional
[24] = test system: Rattus norvegicus; test: Percentage of animals emitting 50 presses on the LSD appropriate lever during the test period in rat at 5.84 mg/kg (16 umol/kg); assay type: functional
[25] = biological target: T6, 5-hydroxytryptamine receptor 2A; test: Binding ability of compound at cloned human 5-hydroxytryptamine 2A receptor using [3H]ketanserin as radioligand
[26] = test system: Rattus norvegicus; test: Percentage of animals failing to emit 50 presses on either lever within the 15-min test period in rat at 0.01 mg/kg (0.023 uM/kg); assay type: functional
[27] = test system: Rattus norvegicus; test: Percentage of animals failing to emit 50 presses on either lever within the 15-min test period in rat at 0.02 mg/kg(0.046 uM/kg); assay type: functional
[28] = test system: Rattus norvegicus; test: Percentage of animals failing to emit 50 presses on either lever within the 15-min test period in rat at 0.04 mg/kg (0.093 uM/kg); assay type: functional
[29] = test system: Rattus norvegicus; test: Percentage of animals failing to emit 50 presses on either lever within the 15-min test period in rat at 0.08 mg/kg (0.186 uM/kg); assay type: functional
[30] = species on record: Rattus norvegicus; test: Effective dose for LSD-like behavioral effect in rats; assay type: functional
[31] = test system: Rattus norvegicus; test: Percentage of animals emitting 50 presses on the LSD appropriate lever during the test period i8n at 0.04 mg/kg (0.093 uM/kg); assay type: functional
[32] = test system: Rattus norvegicus; test: Percentage of animals emitting 50 presses on the LSD appropriate lever during the test period in at 0.08 mg/kg (0.186 uM/kg); assay type: functional
[33] = test system: Rattus norvegicus; test: Percentage of animals emitting 50 presses on the LSD appropriate lever during the test period in rat at 0.01 mg/kg (0.023 uM/kg); assay type: functional
[34] = test system: Rattus norvegicus; test: Percentage of animals emitting 50 presses on the LSD appropriate lever during the test period in rat at 0.02 mg/kg(0.046 uM/kg); assay type: functional

Sequence of Muscarinic acetylcholine receptor M3 (Rattus norvegicus) (P08483 whole entry, looked up): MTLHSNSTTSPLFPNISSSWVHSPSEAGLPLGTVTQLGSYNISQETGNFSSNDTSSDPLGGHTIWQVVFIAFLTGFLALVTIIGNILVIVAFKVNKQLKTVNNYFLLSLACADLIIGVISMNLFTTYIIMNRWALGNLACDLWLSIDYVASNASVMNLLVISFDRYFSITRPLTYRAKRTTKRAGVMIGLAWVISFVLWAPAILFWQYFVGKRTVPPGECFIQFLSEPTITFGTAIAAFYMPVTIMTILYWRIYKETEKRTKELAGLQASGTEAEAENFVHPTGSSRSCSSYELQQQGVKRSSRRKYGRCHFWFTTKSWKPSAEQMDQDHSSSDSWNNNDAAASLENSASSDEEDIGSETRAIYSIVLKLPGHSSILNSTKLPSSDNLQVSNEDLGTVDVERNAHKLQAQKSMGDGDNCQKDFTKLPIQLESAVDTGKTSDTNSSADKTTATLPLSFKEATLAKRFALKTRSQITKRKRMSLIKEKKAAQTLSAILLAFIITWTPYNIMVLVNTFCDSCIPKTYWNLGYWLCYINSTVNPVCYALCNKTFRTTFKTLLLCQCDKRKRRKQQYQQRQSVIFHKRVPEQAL
Sequence of 5-hydroxytryptamine receptor 2A (Rattus norvegicus, UniProt P14842) (P14842 whole entry): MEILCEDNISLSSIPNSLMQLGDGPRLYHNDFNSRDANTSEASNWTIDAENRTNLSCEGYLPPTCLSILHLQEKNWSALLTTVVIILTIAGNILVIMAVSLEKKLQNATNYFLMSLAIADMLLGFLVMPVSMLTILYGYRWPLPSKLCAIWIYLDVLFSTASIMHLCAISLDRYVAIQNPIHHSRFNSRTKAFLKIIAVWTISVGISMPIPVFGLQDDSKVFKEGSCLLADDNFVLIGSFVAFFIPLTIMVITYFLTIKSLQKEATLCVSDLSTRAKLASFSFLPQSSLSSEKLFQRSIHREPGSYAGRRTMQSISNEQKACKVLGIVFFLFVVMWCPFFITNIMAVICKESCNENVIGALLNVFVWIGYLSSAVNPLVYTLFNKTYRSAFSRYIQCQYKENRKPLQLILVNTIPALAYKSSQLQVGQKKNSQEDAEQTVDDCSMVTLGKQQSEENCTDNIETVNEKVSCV
T7 sequence (P41595 whole entry): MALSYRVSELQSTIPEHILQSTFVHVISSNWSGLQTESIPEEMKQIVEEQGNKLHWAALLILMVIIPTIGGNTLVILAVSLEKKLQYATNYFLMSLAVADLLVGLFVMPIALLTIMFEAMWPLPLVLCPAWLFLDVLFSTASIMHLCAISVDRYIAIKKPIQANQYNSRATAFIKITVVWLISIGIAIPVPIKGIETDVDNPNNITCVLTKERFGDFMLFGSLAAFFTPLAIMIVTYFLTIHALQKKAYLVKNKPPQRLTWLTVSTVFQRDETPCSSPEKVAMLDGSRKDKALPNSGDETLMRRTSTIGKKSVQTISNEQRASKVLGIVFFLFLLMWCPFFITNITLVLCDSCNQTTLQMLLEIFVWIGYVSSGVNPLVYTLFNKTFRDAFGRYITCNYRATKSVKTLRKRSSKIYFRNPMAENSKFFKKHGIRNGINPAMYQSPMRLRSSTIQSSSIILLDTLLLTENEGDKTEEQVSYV
T6 sequence (P28223 whole entry): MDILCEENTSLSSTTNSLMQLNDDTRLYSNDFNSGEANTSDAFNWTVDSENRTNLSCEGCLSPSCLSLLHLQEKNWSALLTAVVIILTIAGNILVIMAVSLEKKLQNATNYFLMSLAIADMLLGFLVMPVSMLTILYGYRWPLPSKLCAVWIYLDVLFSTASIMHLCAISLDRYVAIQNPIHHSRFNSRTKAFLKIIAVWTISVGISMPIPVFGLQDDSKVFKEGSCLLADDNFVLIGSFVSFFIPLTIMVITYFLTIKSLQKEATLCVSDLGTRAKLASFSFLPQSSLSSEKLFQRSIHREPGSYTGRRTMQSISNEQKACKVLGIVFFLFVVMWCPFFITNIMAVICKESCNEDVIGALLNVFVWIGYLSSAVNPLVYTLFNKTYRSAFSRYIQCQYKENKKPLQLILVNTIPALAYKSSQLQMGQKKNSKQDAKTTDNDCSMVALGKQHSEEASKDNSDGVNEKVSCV

COc1ccc2c3c1C[C@H](N(C)C)C[C@@H]3CO2
Ki [1]: 38000 nM | Ki [2]: 967 nM | K 0.5 [3]: 953 nM | K 0.5 [4]: 913 nM | K 0.5 [5]: 1100 nM | K 0.5 [6]: 846 nM | K 0.5 [7]: 654 nM

COc1cc(Br)c2c3c1C[C@H](N)C[C@@H]3CO2
Ki [8]: 13 nM | Ki [9]: 255 nM | Ki [10]: 263 nM | Ki [2]: 1050 nM | Ki [11]: 5.96 nM | Ki [12]: 89.6 nM | D [13]: 0% | D [14]: 15% | D [15]: 0% | D [16]: 0% | D [17]: 0% | ED50 [18]: inactive | ED50 [19]: inactive | SDL [20]: 0% | SDL [21]: 33% | SDL [22]: 0% | SDL [23]: 10% | SDL [24]: 44% | Ki [25]: 240 nM | K 0.5 [3]: 41 nM | K 0.5 [4]: 30 nM | K 0.5 [5]: 33 nM | K 0.5 [6]: 20 nM | K 0.5 [7]: 12 nM

CCN(CC)C(=O)[C@@H]1C=C2c3cccc4[nH]cc(c34)C[C@H]2N(C)C1 [LYSERGIDE]
D [26]: 0% | D [27]: 7% | D [28]: 0% | D [29]: 0% | ED50 [30]: 0.037 µmol/kg and 0.016 mg/kg | SDL [31]: 81% | SDL [32]: 100% | SDL [33]: 31% | SDL [34]: 62%

CCCN(CCC)[C@H]1Cc2c(OC)ccc3c2[C@@H](CO3)C1
Ki [1]: 144000 nM | Ki [2]: 644 nM

CN1[C@@H]2CC[C@H]1C[C@@H](OC(=O)C(CO)c1ccccc1)C2 (some centres not stated)
K 0.5 [3]: 1.8 nM | K 0.5 [4]: 0.5 nM | K 0.5 [5]: 0.7 nM | K 0.5 [6]: 0.6 nM | K 0.5 [7]: 0.6 nM
